{
  "source": "paper PMC10976394",
  "about": "(ACS Omega, 2024)",
  "origin": "cited, not measured here",
  "details": "human; cited from earlier work",
  "data": [
    {"compound": "CC[C@@H]1CN(C(=O)NCC(F)(F)F)C[C@@H]1c1cnc2cnc3[nH]ccc3n12", "note": "[upadacitinib]", "values": [
      {"measurement": "clearance behavior under the arthritic condition", "value": "reduced the clearance behavior"}
    ]}
  ]
}
